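These data come from cells grown in 96-well plates and exposed to compound for 48 hours at five concentrations. The concentration for 50% growth inhibition is given as GI50.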 Active and inactive are the calls of the source. No stated cut-off is given here; in the data, active = GI50 up to about 1.1 µM and inactive = higher.
Legend:
Test in all cases: DTP human tumour cell line panel, 48 h
[1] = test system: A549
[2] = test system: ACHN
[3] = test system: HCT-116
[4] = test system: HCT-15
[5] = test system: HL-60
[6] = test system: K562
[7] = test system: KM12
[8] = test system: LOX IMVI
[9] = test system: MOLT-4
[10] = test system: NCI-H23
[11] = test system: NCI-H522
[12] = test system: OVCAR-3
[13] = test system: RXF 393
[14] = test system: SF-295
[15] = test system: SF-539
[16] = test system: SK-MEL-2
[17] = test system: SN12C
[18] = test system: HOP-62

For `COc1c(Cl)c(Cl)c(OC)c2c1C(=O)C=CC2=O`, the GI50 [1] was 88.7 µM (inactive), the GI50 [2] was 15.1 µM (inactive) and the GI50 [3] was 17.8 µM (inactive). The GI50 [4] was 35.6 µM, the GI50 [5] was 2.17 µM (inactive) and the GI50 [6] was 7.85 µM (inactive). The GI50 [7] was 17.5 µM (inactive), the GI50 [8] was 15.9 µM (inactive) and the GI50 [9] was 2.9 µM (inactive). For the same molecule, the GI50 [10] was 40.4 µM (inactive), the GI50 [11] was 17.6 µM (inactive) and the GI50 [12] was 17.3 µM (inactive). The GI50 [13] was 17.1 µM (inactive), the GI50 [14] was 18.5 µM (inactive) and the GI50 [15] was 20 µM (inactive). For the same molecule, the GI50 [16] was 17.3 µM (inactive) and the GI50 [17] was 23.4 µM (inactive).
With `O=C(Cc1ccc(F)cc1)NC1=C(Cl)C(=O)c2ccccc2C1=O` the GI50 [1] was 3.62 µM (inactive), the GI50 [2] was 1.47 µM (inactive) and the GI50 [3] was 2.36 µM (inactive). For the same molecule, the GI50 [4] was 1.31 µM, the GI50 [5] was 0.0916 µM (active) and the GI50 [18] was 10 µM (inactive). The GI50 [6] was 1.54 µM (inactive), the GI50 [7] was 3.52 µM (inactive) and the GI50 [8] was 2.95 µM (inactive). The GI50 [9] was 1.79 µM (inactive), the GI50 [10] was 1.67 µM (inactive) and the GI50 [11] was 0.297 µM (active). The GI50 [12] was 2.75 µM (inactive), the GI50 [13] was 1.05 µM (active) and the GI50 [14] was 3.83 µM (inactive). The GI50 [15] was 2.24 µM (inactive), the GI50 [16] was 2.43 µM (inactive) and the GI50 [17] was 3.38 µM (inactive).
In the case of `CC[C@]1(O)C(=O)OCc2c1cc1n(c2=O)Cc2cc3c(N)cccc3nc2-1`, the GI50 [1] is reported as > 100 µM (inactive), the GI50 [2] is reported as > 100 µM (inactive) and the GI50 [3] is reported as > 100 µM (inactive). For the same molecule, the GI50 [4] was > 100 µM, the GI50 [5] was > 100 µM (inactive) and the GI50 [18] was > 100 µM (inactive). For the same molecule, the GI50 [6] was > 100 µM (inactive), the GI50 [7] was > 100 µM (inactive) and the GI50 [8] was > 100 µM (inactive). The GI50 [9] was > 100 µM (inactive), the GI50 [10] was > 100 µM (inactive) and the GI50 [11] was > 100 µM (inactive). The GI50 [12] was > 100 µM (inactive), the GI50 [13] was > 100 µM (inactive) and the GI50 [14] was > 100 µM (inactive). For the same molecule, the GI50 [15] was > 100 µM (inactive), the GI50 [16] was > 100 µM (inactive) and the GI50 [17] was > 100 µM (inactive).
In the case of `C[N+](C)(C)CCc1ccccc1`, the GI50 [1] is reported as > 100 µM (inactive), the GI50 [2] is reported as > 100 µM (inactive) and the GI50 [3] is reported as > 100 µM (inactive). The GI50 [4] was > 100 µM, the GI50 [5] was > 100 µM (inactive) and the GI50 [18] was > 100 µM (inactive). The GI50 [6] was > 100 µM (inactive), the GI50 [7] was > 100 µM (inactive) and the GI50 [8] was > 100 µM (inactive). For the same molecule, the GI50 [9] was > 100 µM (inactive), the GI50 [10] was > 100 µM (inactive) and the GI50 [11] was > 100 µM (inactive). The GI50 [12] was > 100 µM (inactive), the GI50 [13] was > 100 µM (inactive) and the GI50 [14] was > 100 µM (inactive). For the same molecule, the GI50 [15] was > 100 µM (inactive), the GI50 [16] was > 100 µM (inactive) and the GI50 [17] was > 100 µM (inactive).
For `Cc1ccc(C(=O)O/N=C2/CCCC/C2=C\c2ccccc2)cc1`, the GI50 [1] was 19.5 µM (inactive), the GI50 [2] was 27.2 µM (inactive) and the GI50 [3] was 16.4 µM (inactive). For the same molecule, the GI50 [4] was 32.4 µM, the GI50 [5] was 19.7 µM (inactive) and the GI50 [18] was > 100 µM (inactive). For the same molecule, the GI50 [6] was 19.2 µM (inactive), the GI50 [7] was 73.6 µM (inactive) and the GI50 [8] was 20.1 µM (inactive). The GI50 [10] was 29.4 µM (inactive), the GI50 [11] was 16.6 µM (inactive) and the GI50 [12] was 38.1 µM (inactive). The GI50 [13] was 38.6 µM (inactive), the GI50 [14] was 39.2 µM (inactive) and the GI50 [15] was 45.1 µM (inactive). The GI50 [16] was > 100 µM (inactive) and the GI50 [17] was 80.9 µM (inactive).
For `O=C(CC(=O)n1nc(-c2ccccc2)c(/N=N/c2ccc([N+](=O)[O-])cc2)c1-c1ccccc1)Nc1ccc(Cl)cc1`, the GI50 [1] was 15.9 µM (inactive), the GI50 [2] was 2.07 µM (inactive) and the GI50 [3] was 12.9 µM (inactive). The GI50 [5] was 17 µM (inactive), the GI50 [18] was 14.5 µM (inactive) and the GI50 [6] was 4.19 µM (inactive). The GI50 [7] was 12 µM (inactive), the GI50 [8] was 30.2 µM (inactive) and the GI50 [9] was 24.1 µM (inactive). The GI50 [10] was 27.2 µM (inactive), the GI50 [11] was 23.2 µM (inactive) and the GI50 [12] was 16 µM (inactive). The GI50 [13] was 19.5 µM (inactive), the GI50 [14] was 40.6 µM (inactive) and the GI50 [15] was 21.5 µM (inactive). For the same molecule, the GI50 [16] was 34.8 µM (inactive) and the GI50 [17] was 42.1 µM (inactive).
`NNC(=O)CC(=O)Nc1ccccc1F` was tested, and the GI50 [1] was > 100 µM (inactive), the GI50 [2] was > 100 µM (inactive) and the GI50 [3] was > 100 µM (inactive). For the same molecule, the GI50 [4] was > 100 µM, the GI50 [5] was > 100 µM (inactive) and the GI50 [18] was > 100 µM (inactive). For the same molecule, the GI50 [6] was > 100 µM (inactive), the GI50 [7] was > 100 µM (inactive) and the GI50 [8] was > 100 µM (inactive). For the same molecule, the GI50 [9] was > 100 µM (inactive), the GI50 [10] was > 100 µM (inactive) and the GI50 [11] was > 100 µM (inactive). For the same molecule, the GI50 [12] was > 100 µM (inactive), the GI50 [13] was > 100 µM (inactive) and the GI50 [14] was > 100 µM (inactive). The GI50 [15] was > 100 µM (inactive) and the GI50 [17] was > 100 µM (inactive).
`C(=C\c1c2oc(-c3ccccc3)cc(-c3ccccc3)c-2c2ccccc12)/C=C1\c2ccccc2-c2c(-c3ccccc3)cc(-c3ccccc3)[o+]c21.[O-][Cl+3]([O-])([O-])[O-]` was tested, and the GI50 [1] was > 100 µM (inactive), the GI50 [2] was > 100 µM (inactive) and the GI50 [3] was > 100 µM (inactive). For the same molecule, the GI50 [4] was > 100 µM, the GI50 [5] was > 100 µM (inactive) and the GI50 [18] was > 100 µM (inactive). The GI50 [6] was > 100 µM (inactive), the GI50 [8] was > 100 µM (inactive) and the GI50 [9] was > 100 µM (inactive). The GI50 [10] was > 100 µM (inactive), the GI50 [11] was > 100 µM (inactive) and the GI50 [12] was > 100 µM (inactive). The GI50 [13] was > 100 µM (inactive), the GI50 [14] was > 100 µM (inactive) and the GI50 [15] was > 100 µM (inactive). The GI50 [16] was > 100 µM (inactive) and the GI50 [17] was > 100 µM (inactive).
In the case of `CC(SC(=S)N1CCOCC1)c1cc2oc(=O)n(C)c2cc1Cl` (stereo not given), the GI50 [1] is reported as 42.2 µM (inactive), the GI50 [2] is reported as > 100 µM (inactive) and the GI50 [3] is reported as > 100 µM (inactive). For the same molecule, the GI50 [4] was > 100 µM, the GI50 [5] was 39.4 µM (inactive) and the GI50 [18] was > 100 µM (inactive). The GI50 [6] was 33.3 µM (inactive), the GI50 [7] was > 100 µM (inactive) and the GI50 [8] was 40.9 µM (inactive). The GI50 [9] was 56.1 µM (inactive), the GI50 [10] was > 100 µM (inactive) and the GI50 [12] was > 100 µM (inactive). For the same molecule, the GI50 [13] was > 100 µM (inactive), the GI50 [14] was > 100 µM (inactive) and the GI50 [15] was 76 µM (inactive). The GI50 [16] was > 100 µM (inactive) and the GI50 [17] was > 100 µM (inactive).
`CCOC(=O)C(C(O)c1ccc([N+](=O)[O-])cc1)P(=O)(OCC)OCC` (stereo not given) was tested, and the GI50 [1] was > 100 µM (inactive), the GI50 [2] was > 100 µM (inactive) and the GI50 [3] was > 100 µM (inactive). The GI50 [4] was > 100 µM, the GI50 [5] was 16.7 µM (inactive) and the GI50 [18] was > 100 µM (inactive). The GI50 [6] was 31.3 µM (inactive), the GI50 [7] was > 100 µM (inactive) and the GI50 [8] was 72.9 µM (inactive). For the same molecule, the GI50 [9] was 57.9 µM (inactive), the GI50 [10] was > 100 µM (inactive) and the GI50 [11] was 29.2 µM (inactive). The GI50 [12] was > 100 µM (inactive), the GI50 [13] was 36.5 µM (inactive) and the GI50 [14] was > 100 µM (inactive). For the same molecule, the GI50 [15] was > 100 µM (inactive), the GI50 [16] was > 100 µM (inactive) and the GI50 [17] was > 100 µM (inactive).
With `CN(C)C=C1C(=O)N(C)C(=O)N(C)C1=O` the GI50 [1] was > 100 µM (inactive), the GI50 [2] was > 100 µM (inactive) and the GI50 [3] was > 100 µM (inactive). For the same molecule, the GI50 [4] was > 100 µM, the GI50 [5] was > 100 µM (inactive) and the GI50 [6] was > 100 µM (inactive). For the same molecule, the GI50 [7] was > 100 µM (inactive), the GI50 [8] was > 100 µM (inactive) and the GI50 [9] was > 100 µM (inactive). The GI50 [10] was > 100 µM (inactive), the GI50 [12] was > 100 µM (inactive) and the GI50 [13] was > 100 µM (inactive). For the same molecule, the GI50 [14] was > 100 µM (inactive), the GI50 [15] was > 100 µM (inactive) and the GI50 [16] was > 100 µM (inactive). The GI50 [17] was > 100 µM (inactive).
With `COc1ccc(C/C(=N/O)C(=O)NCCc2cc(Br)c(OCCCN(C)C)c(Br)c2)cc1Br` [APLYSAMINE 2] the GI50 [1] was 20 µM (inactive), the GI50 [2] was 15.6 µM (inactive) and the GI50 [3] was 14.5 µM (inactive). The GI50 [5] was 12.3 µM (inactive), the GI50 [18] was 15.8 µM (inactive) and the GI50 [7] was 16.6 µM (inactive). For the same molecule, the GI50 [8] was 16.2 µM (inactive), the GI50 [10] was > 10 µM (inactive) and the GI50 [11] was 16.4 µM (inactive). For the same molecule, the GI50 [12] was 21.6 µM (inactive), the GI50 [13] was 21.6 µM (inactive) and the GI50 [14] was 18.8 µM (inactive). For the same molecule, the GI50 [15] was 13.6 µM (inactive), the GI50 [16] was 20.1 µM (inactive) and the GI50 [17] was 18.5 µM (inactive).

Source: ChEMBL document CHEMBL1201862, “PubChem BioAssay data set” (2004)
